From patent US12275731B2, “Azaindole inhibitors of wild-type and mutant forms of LRRK2” (DANA-FARBER CANCER INSTITUTE, INC., priority 2018, dated 2025) come the findings set out here.

Common to all, as to test: KinomeScan profiling
Type in all cases: binding

Test [1] addresses ERBB4 (Homo sapiens, UniProt Q15303). To be noted: ERBB4, 1 μM; read-out: % control. In a few lines:
(§1)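 Selectivity was assessed by binding competition at 1 μM against 468 kinases. Values below 35% of control define an interaction.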

For test [2], the target named is PAK3 (Homo sapiens, UniProt O75914). To be noted: PAK3, 1 μM; read-out: % control. A digest of the protocol: as §1
The target in test [3] is T1, MAP4K2 (Homo sapiens, UniProt Q12851).
T1 sequence (Q12851 1-820): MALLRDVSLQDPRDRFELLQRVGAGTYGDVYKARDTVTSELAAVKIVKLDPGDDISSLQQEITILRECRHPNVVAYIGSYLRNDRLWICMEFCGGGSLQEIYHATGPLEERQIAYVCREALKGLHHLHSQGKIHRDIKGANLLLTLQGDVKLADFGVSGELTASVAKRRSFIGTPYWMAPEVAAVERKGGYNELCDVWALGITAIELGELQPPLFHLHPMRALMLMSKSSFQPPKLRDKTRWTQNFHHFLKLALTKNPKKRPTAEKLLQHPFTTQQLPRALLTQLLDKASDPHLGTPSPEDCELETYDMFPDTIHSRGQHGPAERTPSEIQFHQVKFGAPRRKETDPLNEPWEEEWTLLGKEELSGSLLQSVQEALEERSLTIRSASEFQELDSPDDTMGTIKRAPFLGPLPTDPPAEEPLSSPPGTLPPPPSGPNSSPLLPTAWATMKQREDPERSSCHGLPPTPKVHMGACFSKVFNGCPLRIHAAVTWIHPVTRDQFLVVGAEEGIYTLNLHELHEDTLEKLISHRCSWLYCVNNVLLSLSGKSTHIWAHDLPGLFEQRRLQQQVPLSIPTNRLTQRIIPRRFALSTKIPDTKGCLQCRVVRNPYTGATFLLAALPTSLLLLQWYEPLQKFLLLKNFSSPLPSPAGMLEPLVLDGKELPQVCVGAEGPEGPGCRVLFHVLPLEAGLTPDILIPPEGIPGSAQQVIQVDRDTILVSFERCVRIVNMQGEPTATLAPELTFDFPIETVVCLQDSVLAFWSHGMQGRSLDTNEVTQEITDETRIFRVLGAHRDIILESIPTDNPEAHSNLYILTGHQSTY
The conditions noted are these: MAP4K2, 1 μM; read-out: % control. A digest of the protocol: (§2)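 1 μM cpd in DMSO; 468-kinase panel; readout RLU. % ctrl = (cpd − pos ctrl)/(neg ctrl − pos ctrl) ×100. Pos ctrl = 0%, DMSO = 100%. Hit cut-off <35%.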

The target in test [4] is T2, TAOK1 (Homo sapiens, UniProt Q7L7X3).
T2 construct: purchased KinomeScan® (panel service)
T2 sequence (Q7L7X3 1-1001): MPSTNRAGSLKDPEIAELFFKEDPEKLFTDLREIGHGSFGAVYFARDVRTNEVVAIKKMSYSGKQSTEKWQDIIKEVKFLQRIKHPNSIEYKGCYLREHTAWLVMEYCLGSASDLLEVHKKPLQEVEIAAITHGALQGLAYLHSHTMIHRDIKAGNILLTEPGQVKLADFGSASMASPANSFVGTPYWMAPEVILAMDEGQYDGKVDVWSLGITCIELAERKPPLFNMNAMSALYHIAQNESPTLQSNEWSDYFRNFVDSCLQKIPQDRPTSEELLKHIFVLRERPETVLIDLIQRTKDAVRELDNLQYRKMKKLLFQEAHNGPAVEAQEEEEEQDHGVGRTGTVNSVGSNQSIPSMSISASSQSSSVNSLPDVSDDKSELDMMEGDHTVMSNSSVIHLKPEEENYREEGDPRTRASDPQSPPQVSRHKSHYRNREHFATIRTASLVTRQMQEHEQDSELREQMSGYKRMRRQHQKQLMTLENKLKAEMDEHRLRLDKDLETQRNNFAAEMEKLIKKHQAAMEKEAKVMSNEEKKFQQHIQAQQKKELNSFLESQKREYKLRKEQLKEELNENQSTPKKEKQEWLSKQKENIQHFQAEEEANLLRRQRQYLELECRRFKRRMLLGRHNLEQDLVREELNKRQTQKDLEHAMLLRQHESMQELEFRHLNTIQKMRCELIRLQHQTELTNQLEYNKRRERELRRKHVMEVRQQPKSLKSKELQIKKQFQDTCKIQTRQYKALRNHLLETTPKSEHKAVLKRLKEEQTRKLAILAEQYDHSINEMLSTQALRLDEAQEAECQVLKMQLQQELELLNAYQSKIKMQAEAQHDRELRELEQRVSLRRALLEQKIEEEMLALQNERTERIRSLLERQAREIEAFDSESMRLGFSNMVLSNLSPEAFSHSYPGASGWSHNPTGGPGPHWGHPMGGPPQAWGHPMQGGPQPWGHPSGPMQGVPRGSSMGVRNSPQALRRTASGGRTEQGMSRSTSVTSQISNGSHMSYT
To be noted: TAOK1, 1 μM; read-out: % control. A digest of the protocol:
as §2

Test [5] has as its target T3, GRK7 (Homo sapiens, UniProt Q8WTQ7).
T3 sequence (Q8WTQ7 1-553): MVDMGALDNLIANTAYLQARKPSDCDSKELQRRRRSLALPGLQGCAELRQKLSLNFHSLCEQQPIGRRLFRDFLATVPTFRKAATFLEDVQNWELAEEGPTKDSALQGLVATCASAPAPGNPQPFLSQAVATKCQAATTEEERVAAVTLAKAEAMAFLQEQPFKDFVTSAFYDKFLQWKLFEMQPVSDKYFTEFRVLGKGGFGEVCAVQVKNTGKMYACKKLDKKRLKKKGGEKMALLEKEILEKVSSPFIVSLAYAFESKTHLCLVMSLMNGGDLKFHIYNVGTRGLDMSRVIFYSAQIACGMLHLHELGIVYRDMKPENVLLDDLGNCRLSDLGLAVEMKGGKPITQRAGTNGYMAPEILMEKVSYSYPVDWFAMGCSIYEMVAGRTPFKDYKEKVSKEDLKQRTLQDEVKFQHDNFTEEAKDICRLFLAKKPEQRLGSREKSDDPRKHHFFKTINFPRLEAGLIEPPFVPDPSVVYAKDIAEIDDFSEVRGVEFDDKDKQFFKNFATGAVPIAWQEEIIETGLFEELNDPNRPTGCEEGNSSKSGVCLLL
To be noted: GRK7, 1 μM; read-out: % control. A digest of the protocol: as §2

In test [6] the target is T4, PIK3CB (Homo sapiens, UniProt P42338).
T4 construct: purchased KinomeScan® (panel service)
To be noted: read-out: % control. A digest of the protocol: as §2

Test [7] has as its target LOK (Homo sapiens, UniProt O94804). The conditions noted are these: read-out: % control. In a few lines: as §2

T4 sequence (P42338 whole entry): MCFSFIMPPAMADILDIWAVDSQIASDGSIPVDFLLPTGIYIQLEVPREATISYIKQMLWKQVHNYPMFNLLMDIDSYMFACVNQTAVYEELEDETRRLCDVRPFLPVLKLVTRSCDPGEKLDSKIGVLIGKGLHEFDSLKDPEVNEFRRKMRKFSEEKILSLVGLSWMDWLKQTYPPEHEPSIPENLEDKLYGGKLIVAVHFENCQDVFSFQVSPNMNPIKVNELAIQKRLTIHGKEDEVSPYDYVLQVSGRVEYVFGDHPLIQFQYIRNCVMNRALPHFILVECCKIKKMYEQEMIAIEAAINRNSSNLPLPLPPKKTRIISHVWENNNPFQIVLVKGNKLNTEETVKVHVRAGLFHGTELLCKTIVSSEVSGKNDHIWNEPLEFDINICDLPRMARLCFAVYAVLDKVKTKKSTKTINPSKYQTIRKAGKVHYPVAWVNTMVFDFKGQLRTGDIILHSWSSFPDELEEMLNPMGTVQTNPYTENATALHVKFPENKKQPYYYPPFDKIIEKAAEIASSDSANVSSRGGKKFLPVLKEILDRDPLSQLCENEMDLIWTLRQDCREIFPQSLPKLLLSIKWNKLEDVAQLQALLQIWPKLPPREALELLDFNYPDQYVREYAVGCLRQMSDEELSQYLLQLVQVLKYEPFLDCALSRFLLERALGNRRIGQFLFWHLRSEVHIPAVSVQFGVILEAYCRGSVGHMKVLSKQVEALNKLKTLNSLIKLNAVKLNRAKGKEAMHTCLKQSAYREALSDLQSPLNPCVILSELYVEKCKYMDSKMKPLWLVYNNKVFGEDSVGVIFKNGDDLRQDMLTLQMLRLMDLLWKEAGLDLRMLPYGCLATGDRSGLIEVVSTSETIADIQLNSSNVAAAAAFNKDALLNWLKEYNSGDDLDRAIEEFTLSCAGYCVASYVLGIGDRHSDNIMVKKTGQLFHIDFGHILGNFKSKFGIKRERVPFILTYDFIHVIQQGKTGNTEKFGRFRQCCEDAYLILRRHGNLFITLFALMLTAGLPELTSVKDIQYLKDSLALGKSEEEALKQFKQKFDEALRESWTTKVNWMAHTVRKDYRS
PAK3, sequence (O75914 whole entry): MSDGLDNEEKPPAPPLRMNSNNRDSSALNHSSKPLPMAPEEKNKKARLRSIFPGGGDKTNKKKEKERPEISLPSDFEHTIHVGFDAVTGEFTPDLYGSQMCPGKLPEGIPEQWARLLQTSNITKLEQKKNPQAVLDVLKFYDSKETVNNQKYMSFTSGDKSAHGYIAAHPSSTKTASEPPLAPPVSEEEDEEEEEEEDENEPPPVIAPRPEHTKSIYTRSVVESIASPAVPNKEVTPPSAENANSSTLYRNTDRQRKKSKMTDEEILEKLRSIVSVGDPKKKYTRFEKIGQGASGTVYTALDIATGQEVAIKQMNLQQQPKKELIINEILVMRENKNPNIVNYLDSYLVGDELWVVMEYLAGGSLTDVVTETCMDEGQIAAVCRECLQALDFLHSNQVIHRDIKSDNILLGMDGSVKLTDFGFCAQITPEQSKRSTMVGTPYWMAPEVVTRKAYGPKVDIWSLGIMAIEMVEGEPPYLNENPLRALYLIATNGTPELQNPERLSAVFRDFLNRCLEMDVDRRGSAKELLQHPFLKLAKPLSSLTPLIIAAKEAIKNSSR
ERBB4, sequence (Q15303 26-1308): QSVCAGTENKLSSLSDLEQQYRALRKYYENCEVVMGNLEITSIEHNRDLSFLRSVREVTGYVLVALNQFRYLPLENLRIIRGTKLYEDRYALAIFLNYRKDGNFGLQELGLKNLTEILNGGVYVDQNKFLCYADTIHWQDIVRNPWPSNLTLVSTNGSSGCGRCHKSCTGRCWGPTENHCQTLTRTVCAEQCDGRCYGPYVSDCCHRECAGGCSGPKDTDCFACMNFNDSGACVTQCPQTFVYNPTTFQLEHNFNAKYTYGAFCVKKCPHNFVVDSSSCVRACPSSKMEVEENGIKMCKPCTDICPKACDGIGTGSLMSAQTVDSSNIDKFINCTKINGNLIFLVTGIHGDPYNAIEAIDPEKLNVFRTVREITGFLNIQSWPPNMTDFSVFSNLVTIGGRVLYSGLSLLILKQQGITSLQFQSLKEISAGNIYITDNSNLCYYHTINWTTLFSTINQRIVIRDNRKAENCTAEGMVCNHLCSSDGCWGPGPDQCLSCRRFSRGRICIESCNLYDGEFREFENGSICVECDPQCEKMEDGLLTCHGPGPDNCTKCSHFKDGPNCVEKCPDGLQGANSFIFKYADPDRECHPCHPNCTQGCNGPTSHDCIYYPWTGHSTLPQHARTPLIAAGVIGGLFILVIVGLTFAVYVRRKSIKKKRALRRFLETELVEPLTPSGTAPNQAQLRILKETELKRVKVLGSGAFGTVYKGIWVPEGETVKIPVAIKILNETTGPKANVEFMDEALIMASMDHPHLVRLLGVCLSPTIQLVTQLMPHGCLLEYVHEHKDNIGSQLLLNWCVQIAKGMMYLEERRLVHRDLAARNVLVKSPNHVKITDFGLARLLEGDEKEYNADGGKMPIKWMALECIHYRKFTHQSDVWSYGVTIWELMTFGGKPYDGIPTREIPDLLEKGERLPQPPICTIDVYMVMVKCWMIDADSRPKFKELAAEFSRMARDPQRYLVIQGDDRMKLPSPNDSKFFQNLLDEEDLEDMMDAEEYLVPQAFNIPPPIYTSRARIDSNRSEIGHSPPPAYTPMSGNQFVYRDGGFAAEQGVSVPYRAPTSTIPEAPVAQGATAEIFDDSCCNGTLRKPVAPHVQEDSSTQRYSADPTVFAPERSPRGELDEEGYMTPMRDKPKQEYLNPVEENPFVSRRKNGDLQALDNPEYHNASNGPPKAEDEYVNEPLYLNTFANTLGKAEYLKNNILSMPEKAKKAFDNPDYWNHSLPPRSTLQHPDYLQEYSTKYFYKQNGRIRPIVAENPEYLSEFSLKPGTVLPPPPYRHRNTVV
LOK, sequence (O94804 whole entry): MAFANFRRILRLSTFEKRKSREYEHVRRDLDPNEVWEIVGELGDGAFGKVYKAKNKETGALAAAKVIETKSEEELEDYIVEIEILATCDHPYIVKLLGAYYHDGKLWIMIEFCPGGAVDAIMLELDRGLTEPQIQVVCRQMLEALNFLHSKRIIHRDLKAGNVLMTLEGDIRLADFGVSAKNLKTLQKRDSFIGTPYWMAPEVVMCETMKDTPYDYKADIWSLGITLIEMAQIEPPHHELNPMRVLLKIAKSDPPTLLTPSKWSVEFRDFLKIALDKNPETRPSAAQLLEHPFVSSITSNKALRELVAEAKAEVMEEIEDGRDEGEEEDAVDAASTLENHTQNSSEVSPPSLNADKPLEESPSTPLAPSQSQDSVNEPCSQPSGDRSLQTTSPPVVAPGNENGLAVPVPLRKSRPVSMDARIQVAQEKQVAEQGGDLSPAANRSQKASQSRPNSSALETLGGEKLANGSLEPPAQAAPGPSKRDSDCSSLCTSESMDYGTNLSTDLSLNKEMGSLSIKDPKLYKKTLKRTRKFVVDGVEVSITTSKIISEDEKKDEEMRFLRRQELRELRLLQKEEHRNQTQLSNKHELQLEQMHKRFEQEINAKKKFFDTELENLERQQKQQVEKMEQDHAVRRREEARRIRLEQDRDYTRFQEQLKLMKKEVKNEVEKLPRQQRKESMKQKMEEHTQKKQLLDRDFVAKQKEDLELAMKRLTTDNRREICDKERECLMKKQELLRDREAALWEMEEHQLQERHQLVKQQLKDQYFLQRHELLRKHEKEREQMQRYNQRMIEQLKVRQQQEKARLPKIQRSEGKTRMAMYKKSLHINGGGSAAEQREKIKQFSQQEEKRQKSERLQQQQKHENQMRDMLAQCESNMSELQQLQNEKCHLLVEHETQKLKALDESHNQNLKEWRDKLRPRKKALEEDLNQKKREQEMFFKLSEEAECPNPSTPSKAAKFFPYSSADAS

As for `CNc1c(-c2cnn([C@H]3CCN(C(C)=O)C[C@@H]3F)c2)cnc2[nH]cc(Cl)c12` [Compound 77, 1-((3S,4S)-4-(4-(3-chloro-4-(methylamino)-1H-pyrrolo[2,3-b]pyridin-5-yl)-1H-pyrazol-1-yl)-3-fluoropiperidin-1-yl)ethan-1-one], the remaining binding at 1 µM came to 100% in test [1]; 97% in test [2]; 20% in test [3]; 100% in test [4]; 100% in test [5]; 100% in test [6]. Moreover, the remaining binding at 1 µM in test [7] came to 99%.

Consider `CNc1c(-c2ccc(C(=O)N3CCC(N4CCOCC4)CC3)cc2)cnc2[nH]cc(Cl)c12` [Compound 96, (4-(3-chloro-4-(methylamino)-1H-pyrrolo[2,3-b]pyridin-5-yl)phenyl)(4-morpholinopiperidin-1-yl)methanone], for which the remaining binding at 1 µM in test [1] stood at 100%; in test [2], 74%; in test [3] it was 1.1%; in test [4], 96%; in test [5] it was 100%; in test [6] it was 100%. For the same compound, in test [7], the remaining binding at 1 µM was 88%.

As to `O=C(c1ccc(-c2cnc3[nH]cc(Cl)c3c2NC2CCCC2)cc1)N1CCC(N2CCOCC2)CC1` [Compound 101, (4-(3-chloro-4-(cyclopentylamino)-1H-pyrrolo[2,3-b]pyridin-5-yl)phenyl)(4-morpholinopiperidin-1-yl)methanone], the remaining binding at 1 µM in test [1] is 97%; in test [2], 86%; in test [3] it was 20%; in test [4] it was 99%; in test [5], 94%; in test [6], 100%. Also, in test [7], the remaining binding at 1 µM is 81%.
